Reference: patent EP3800188A1, “SUBSTITUTED PYRAZOLOPYRIMIDINES AS IRAK4 INHIBITORS” (Bayer AG, priority 2019, dated 2021)

Biological target: T1, human IRAK4 (Homo sapiens, UniProt Q9NWZ3)
T1 construct: GST (N); made in house; host or cells: baculovirus-infected Hi5 (BTI-TN-5B1-4) insect cells
T1 sequence (Q9NWZ3 1-460): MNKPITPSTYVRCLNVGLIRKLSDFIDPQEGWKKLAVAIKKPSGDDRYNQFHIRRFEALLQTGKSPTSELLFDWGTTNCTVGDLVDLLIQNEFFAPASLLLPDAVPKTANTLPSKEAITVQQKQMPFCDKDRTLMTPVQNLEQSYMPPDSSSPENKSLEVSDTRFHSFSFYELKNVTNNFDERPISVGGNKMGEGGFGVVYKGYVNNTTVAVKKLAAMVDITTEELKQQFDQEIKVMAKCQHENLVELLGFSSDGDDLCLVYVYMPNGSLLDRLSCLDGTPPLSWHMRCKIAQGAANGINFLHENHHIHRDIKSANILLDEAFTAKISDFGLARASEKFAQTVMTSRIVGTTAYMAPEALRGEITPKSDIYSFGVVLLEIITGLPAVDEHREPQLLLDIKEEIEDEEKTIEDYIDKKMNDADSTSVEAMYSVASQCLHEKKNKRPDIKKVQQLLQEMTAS
Experiment: Human IRAK4 kinase activity inhibition assay (IRAK4 TR-FRET assay)
Format: biochemical
Conditions: 1 mM ATP, GST-human IRAK4, average or median values
How it was run: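 Signal was the 665/620 nm emission ratio from a europium anti-mouse-IgG, anti-phosphoserine antibody and streptavidin-XL665 complex formed over 1 h at 22°C. It was scaled between no-enzyme (100%) and no-compound (0%) wells. Beforehand, compounds (20 µM down to 0.073 nM, 11 points) sat 15 min with roughly 0.2 nM insect-cell-expressed GST-human IRAK4 before phosphorylation of a biotinylated peptide substrate.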

Point of comparison: `CCS(=O)(=O)N1CC(Nc2nc(N3C[C@@H](O)[C@H](O)C3)c3cnn(-c4cccc(C(F)(F)F)c4)c3n2)C1` [Example I-84, (3R,4R)-1-(6-{[1-(ethylsulfonyl)azetidin-3-yl]amino}-1-[3-(trifluoromethyl)phenyl]-1H-pyrazolo[3,4-d]pyrimidin-4-yl)pyrrolidine-3,4-diol], IC50 48.3 nM. Against it:
- CC1(O)CCN(C2CN(c3nc(NC4CCS(=O)(=O)CC4)nc4c3cnn4-c3cccc(C(F)(F)F)c3)C2)CC1 [Example I-80, 1-(1-{6-[(1,1-dioxidotetrahydro-2H-thiopyran-4-yl)amino]-1-[3-(trifluoromethyl)phenyl]-1H-pyrazolo[3,4-d]pyrimidin-4-yl}azetidin-3-yl)-4-methylpiperidin-4-ol] — 4.2-fold lower, 11.4 nM
- CCS(=O)(=O)N1CC(Nc2nc(N3CC(N4CCOCC4)C3)c3cnn(-c4cccc(C(F)(F)F)c4)c3n2)C1 [Example I-81, N-[1-(ethylsulfonyl)azetidin-3-yl]-4-[3-(morpholin-4-yl)azetidin-1-yl]-1-[3-(trifluoromethyl)phenyl]-1H-pyrazolo[3,4-d]pyrimidin-6-amine] — 1.7-fold higher, 83.2 nM
- CCS(=O)(=O)[C@H]1C[C@H](Nc2nc(N3CC(N4CCOCC4)C3)c3cnn(-c4cccc(C(F)(F)F)c4)c3n2)C1 [Example I-82, N-[trans-3-(ethylsulfonyl)cyclobutyl]-4-[3-(morpholin-4-yl)azetidin-1-yl]-1-[3-(trifluoromethyl)phenyl]-1H-pyrazolo[3,4-d]pyrimidin-6-amine] — 4.2-fold lower, 11.5 nM
- CCS(=O)(=O)[C@H]1C[C@H](Nc2nc(N3C[C@@H](O)[C@H](F)C3)c3cnn(-c4cccc(C(F)(F)F)c4)c3n2)C1 [Example I-87, (3R,4R)-1-(6-{[(1r,3R)-3-(ethylsulfonyl)cyclobutyl]amino}-1-[3-(trifluoromethyl)phenyl]-1H-pyrazolo[3,4-d]pyrimidin-4-yl)-4-fluoropyrrolidin-3-ol] — 6.1-fold lower, 7.87 nM
- CC(C)(O)C1CCN(c2nc(N[C@H]3C[C@@](C)(O)C3)nc3c2cnn3-c2cccc(C(F)(F)F)c2)CC1 [Example I-90, cis-3-({4-[4-(2-hydroxypropan-2-yl)piperidin-1-yl]-1-[3-(trifluoromethyl)phenyl]-1H-pyrazolo[3,4-d]pyrimidin-6-yl}amino)-1-methylcyclobutanol] — 2-fold lower, 24.7 nM
- CS(=O)(=O)[C@H]1C[C@H](Nc2nc(N3CCC(O)CC3)c3cnn(-c4cccc(C(F)(F)F)c4)c3n2)C1 [Example I-93, 1-(6-{[trans-3-(methylsulfonyl)cyclobutyl]amino}-1-[3-(trifluoromethyl)phenyl]-1H-pyrazolo[3,4-d]pyrimidin-4-yl)piperidin-4-ol] — 4.3-fold lower, 11.2 nM
- CCS(=O)(=O)[C@H]1C[C@H](Nc2nc(N3C[C@H](O)[C@@H](F)C3)c3cnn(-c4cccc(C(F)(F)F)c4)c3n2)C1 [Example I-95, (3S,4S)-1-(6-{[(1r,3S)-3-(ethylsulfonyl)cyclobutyl]amino}-1-[3-(trifluoromethyl)phenyl]-1H-pyrazolo[3,4-d]pyrimidin-4-yl)-4-fluoropyrrolidin-3-ol] — 1.9-fold lower, 25 nM
- O[C@H]1CN(c2nc(N[C@H]3C[C@H](O)C3)nc3c2cnn3-c2cccc(C(F)(F)F)c2)C[C@@H]1F [Example I-96, (3S,4S)-4-fluoro-1-(6-{[(1r,3S)-3-hydroxycyclobutyl]amino}-1-[3-(trifluoromethyl)-phenyl]-1H-pyrazolo[3,4-d]pyrimidin-4-yl)pyrrolidin-3-ol] — 6-fold lower, 8.1 nM
- O[C@H]1CN(c2nc(N[C@H]3C[C@@H](O)C3)nc3c2cnn3-c2cccc(C(F)(F)F)c2)C[C@@H]1F [Example I-97, (3S,4S)-4-fluoro-1-(6-{[(1s,3R)-3-hydroxycyclobutyl]amino}-1-[3-(trifluoromethyl)-phenyl]-1H-pyrazolo[3,4-d]pyrimidin-4-yl)pyrrolidin-3-ol] — 5.9-fold lower, 8.16 nM
- CS(=O)(=O)[C@H]1C[C@H](Nc2nc(N3CC(F)C3)c3cnn(-c4cccc(C(F)(F)F)c4)c3n2)C1 [Example I-99, 4-(3-fluoroazetidin-1-yl)-N-[trans-3-(methylsulfonyl)cyclobutyl]-1-[3-(trifluoromethyl)-phenyl]-1H-pyrazolo[3,4-d]pyrimidin-6-amine] — 3-fold lower, 16.2 nM
- OC1CCN(c2nc(N[C@H]3C[C@H](O)C3)nc3c2cnn3-c2cccc(C(F)(F)F)c2)CC1 [Example I-100] — within 1.5-fold, 49.9 nM
- C[C@@]1(O)CCN(c2nc(N[C@H]3C[C@H](O)C3)nc3c2cnn3-c2cccc(C(F)(F)F)c2)C1 [Example I-102, (3R)-1-(6-{[(1r,3R)-3-hydroxycyclobutyl]amino}-1-[3-(trifluoromethyl)phenyl]-1H-pyrazolo[3,4-d]pyrimidin-4-yl)-3-methylpyrrolidin-3-ol] — within 1.5-fold, 49.9 nM
- C[C@@]1(O)CCN(c2nc(N[C@H]3C[C@H](S(C)(=O)=O)C3)nc3c2cnn3-c2cccc(C(F)(F)F)c2)C1 [Example I-103, (3R)-3-methyl-1-(6-{[(1r,3R)-3-(methylsulfonyl)cyclobutyl]amino}-1-[3-(trifluoromethyl)-phenyl]-1H-pyrazolo[3,4-d]pyrimidin-4-yl)pyrrolidin-3-ol] — 4.2-fold lower, 11.4 nM
- CC1(O)CCN(C2CN(c3nc(N[C@H]4C[C@](C)(O)C4)nc4c3cnn4-c3cccc(C(F)(F)F)c3)C2)CC1 [Example I-110, 1-(1-{6-[(trans-3-hydroxy-3-methylcyclobutyl)amino]-1-[3-(trifluoromethyl)phenyl]-1H-pyrazolo[3,4-d]pyrimidin-4-yl}azetidin-3-yl)-4-methylpiperidin-4-ol] — 4.1-fold lower, 11.8 nM
- CC(C)(O)C1CN(c2nc(N[C@H]3C[C@@H](O)C3)nc3c2cnn3-c2cccc(C(F)(F)F)c2)C1 [Example I-116, cis-3-({4-[3-(2-hydroxypropan-2-yl)azetidin-1-yl]-1-[3-(trifluoromethyl)phenyl]-1H-pyrazolo[3,4-d]pyrimidin-6-yl}amino)cyclobutanol] — 2.9-fold lower, 16.8 nM
- O[C@@H]1CCN(c2nc(N[C@H]3C[C@@H](O)C3)nc3c2cnn3-c2cccc(C(F)(F)F)c2)C1 [Example I-117, (3R)-1-(6-{[(1s,3S)-3-hydroxycyclobutyl]amino}-1-[3-(trifluoromethyl)phenyl]-1H-pyrazolo[3,4-d]pyrimidin-4-yl)pyrrolidin-3-ol] — 2.1-fold lower, 23.4 nM
- O[C@H]1C[C@@H](Nc2nc(N3CC(N4CCC(F)(F)C4)C3)c3cnn(-c4cccc(C(F)(F)F)c4)c3n2)C1 [Example I-118, cis-3-({4-[3-(3,3-difluoropyrrolidin-1-yl)azetidin-1-yl]-1-[3-(trifluoromethyl)phenyl]-1H-pyrazolo[3,4-d]pyrimidin-6-yl}amino)cyclobutanol] — 9.4-fold lower, 5.13 nM
- O[C@H]1C[C@H](Nc2nc(N3CC(N4CC(F)C4)C3)c3cnn(-c4cccc(C(F)(F)F)c4)c3n2)C1 [Example I-119, trans-3-({4-(3-fluoro[1,3'-biazetidin]-1'-yl)-1-[3-(trifluoromethyl)phenyl]-1H-pyrazolo[3,4-d]pyrimidin-6-yl}amino)cyclobutanol] — 2.9-fold lower, 16.5 nM
- C[C@]1(O)C[C@H](Nc2nc(N3CC(N4CC(F)C4)C3)c3cnn(-c4cccc(C(F)(F)F)c4)c3n2)C1 [Example I-120, trans-3-({4-(3-fluoro[1,3'-biazetidin]-1'-yl)-1-[3-(trifluoromethyl)phenyl]-1H-pyrazolo[3,4-d]pyrimidin-6-yl}amino)-1-methylcyclobutanol] — 2.9-fold lower, 16.6 nM
